Patent US10266526B2, “Substituted 1,2,3-triazoles as SMYD inhibitors for treating cancer” (EPIZYME, INC., priority 2014, dated 2019)

What was measured:
[1] = system: esophageal, liver and breast cancer cell lines; conditions: several esophageal, dose-dependent; cited from earlier work
SMYD3 [2] = molecular target: T1, SMYD3 (Homo sapiens (Human), UniProt Q9H7B4); test: SMYD3 biochemical assay (SMYD3 enzyme assay on MEKK2 protein substrate, 3H-SAM scintillation proximity assay); conditions: Table 3A; average of n = 1 to n = 50; read-out: SMYD3 Biochem IC50
T1 sequence (Q9H7B4 whole entry): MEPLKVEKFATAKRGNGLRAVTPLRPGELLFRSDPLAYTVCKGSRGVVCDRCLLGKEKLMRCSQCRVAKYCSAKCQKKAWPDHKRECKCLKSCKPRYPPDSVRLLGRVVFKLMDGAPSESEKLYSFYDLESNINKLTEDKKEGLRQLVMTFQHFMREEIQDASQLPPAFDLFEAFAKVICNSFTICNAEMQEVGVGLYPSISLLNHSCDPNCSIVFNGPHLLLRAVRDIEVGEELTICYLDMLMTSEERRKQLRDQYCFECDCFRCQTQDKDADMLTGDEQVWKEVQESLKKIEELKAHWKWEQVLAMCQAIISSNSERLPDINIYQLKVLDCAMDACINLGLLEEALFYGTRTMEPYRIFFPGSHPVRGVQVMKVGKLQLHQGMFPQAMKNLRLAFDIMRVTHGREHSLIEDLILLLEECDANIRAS
In short: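 Detection used scintillation proximity beads to capture ³H-methylated GST-MEKK2 after quench with 100 uM final cold SAM. The reaction was started by SAM/MEKK2 addition after a 30 min RT compound–enzyme preincubation. Enzyme was tag-free full-length human SMYD3 from E. coli, in buffer of 25 mM Tris-Cl pH 8.0, 1 mM TCEP, 0.005% BSG, 0.005% Tween 20.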

SMYD3 [3] = molecular target: T1, SMYD3; test: SMYD3 cell assay (Trimethyl-MEKK2 In-Cell Western in 293T/17 cells transfected with MEKK2-flag and SMYD3); format: cell-based; conditions: Table 3A; average of n = 1 to n = 50; read-out: SMYD3 cell IC50
In short: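 Methanol-fixed cells stained in-cell Western for trimethyl-MEKK2 and anti-flag. Ratio-based % inhibition against DMSO and background controls; IC50 by non-linear regression, triplicate wells.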

For `Cc1cn(CCN2CCN(c3ccccc3-c3cc(C#N)cc(C(=O)NCCCN4CCCC4)c3)CC2)c2ccccc12` [LLY-507], the “proliferation of cancer cell lines” value [1] is listed as “inhibited the proliferation”.
`CC(=O)Nc1ccc(S(=O)(=O)N2CCC(NC(=O)c3ccc4c(c3)CC(=O)N4)CC2)cc1` [compound 643, N-(1-((4-acetamidophenyl)sulfonyl)piperidin-4-yl)-2-oxoindoline-5-carboxamide] gave an IC50 (SMYD3 [2]) of 16900 nM and an IC50 (SMYD3 [3]) of at least 10000 nM.
Work on `NC1CCN(S(=O)(=O)N2[C@@H]3CC[C@H]2C[C@@H](NC(=O)c2cc(C4CC4)no2)C3)CC1` [compound 644, N-((1R,3r,5S)-8-((4-aminopiperidin-1-yl)sulfonyl)-8-azabicyclo[3.2.1]octan-3-yl)-3-cyclopropylisoxazole-5-carboxamide] yielded an IC50 (SMYD3 [2]) of 18.5 nM and an IC50 (SMYD3 [3]) of 257 nM.
